The subject of one data set is Saos-2 Cells. As to the kind of experiment: ENPP1 Mineralization Assay. The data set is classed as cell-based. The following applies: FIG. 9, mineralization components for 3 days. On the procedure:
Saos-2 Cells (ATCC CAT #HTB-85). Culture Medium. 24-well Tissue Culture Plate. Ascorbic Acid, 5 mg/mL (100×). β-Glycerophosphate, 1M (100×). Phosphate Buffered Saline. Alizarin Red, 40 mM pH 4.2. 70% Ethanol. Dye Extraction Reagent, 10% Methanol+10% Acetic Acid
Saos-2 cells were plated at a density of 1.5×10^6 cells/well and allowed to grow to 100% confluency over the following 1-2 days. Once completely confluent, the media was replaced with fresh media supplemented with 1× ascorbic acid, 1× β-glycerophosphate, and varying concentrations of ENPP1 inhibitor (if applicable). The addition of the mineralization components was considered Day 1. On Day 3, the media was gently aspirated with no wash followed by the addition of fresh media, mineralization components, and ENPP1 inhibitor (if applicable). On day 5, the media was gently aspirated and the cells were washed twice with PBS. The cells were then fixed with ice cold 70% ethanol for 1 hour at 4° C. Cells were washed once with PBS and stained with Alizarin Red for 30 minutes at room temperature with gentle rotation. Stained cells were washed three times with water for 10 minutes at room temperature with gentle rotation. After imaging cells, dye extraction reagent was added to each well and incubated for 30 minutes at room temperature. Alizarin red was quantified by measuring absorbance at a wavelength of 405 nm using the Envision.
FIG. 9 depicts a picture of results of a similar SAOS-2 mineralization assay. SAOS-2 cell were cultured in the presence and absence of ENPP1 inhibitor (compound 78, 107-02 or 108) and exposed to mineralization components for 3 days.

The test system of another data set is KPC mouse model of PDAC. Kind of data set: Tumor growth in KPC mouse model of PDAC. The data set is classed as in vivo. The note with it: once daily via IP at 20 mg/kg, FIG. 15B. From the text:
FIG. 15A a pharmacokinetic (PK) plasma concentration chart for compound 107-02. FIG. 15B is a tumor growth inhibition curve for compound 107-02 following in vivo administration. […] FIGS. 15C and 15D are flowcytometric charts of excised tumors following administration of compound 107-02. At the end of the study, tumors were excised and analyzed for T-cells and tumor-associated macrophages using flow cytometry. *p<0.05.

Data set [1] addresses T1, Recombinant Human ENPP-1 Protein (purified in-house) (Homo sapiens (Human), UniProt P22413). As to the kind of experiment: ENPP1 Assay (ATP), Example 2. The following applies: Table 5, ATP substrate; read-out: ENPP1 (IC50 μM) ATP. The data set is classed as biochemical. On the procedure:
Assay Buffer: 1 mM CaCl2, 0.2 mM ZnCl2, 50 mM Tris, pH 9.0. Substrate: 100 μM Adenosine 5′-triphosphate disodium salt hydrate (Promega: V703A)—Assay Conc.: 10 μM. Enzyme: 1 ng/μL Recombinant Human ENPP-1 Protein (purified in-house)—Assay Conc.: 5 ng/well of DMSO in 96-well white assay plates. Cell Titer Glo (Promega, cat #G7572).
A ten point serial dilution of drugs was prepared in 10× in assay buffer with the final assay concentrations starting at 10 μM, 3 μM, 1 μM, 0.3 μM . . . 0 μM. A dilution of DMSO was included as a control. The assay plate was set up as follows with each well in duplicate: 75 μL assay buffer+10 μL ENPP1 inhibitor or DMSO Dilutions+10 μL Substrate+5 μL Enzyme (5 ng). Both the enzyme and substrate were added to opposite sides of the well to ensure that there was no interaction until all wells had both components. The plate was then centrifuged gently for 10 seconds, followed by incubation at RT for 20 minutes. To detect levels of ATP, Cell Titer Glo was added 1:1 to each well and incubated for 10 minutes. The reaction was quantified by measuring luminescence using the Envision Plate Reader.

The target in data set [2] is T2, ENPP1 protein (Homo sapiens (Human), UniProt P22413). Kind of data set: ENPP1 Thermal Shift Assay (Example 1). The data set is classed as binding. On the procedure: Assay Buffer (1 mM CaCl2, 0.2 mM ZnCl2, 50 mM Tris, pH 9.0) 5000×SYPRO Orange (ThermoFisher cat #S6651) 384-well PCR Plates
Each drug was prepared as a 10× solution in the assay buffer and SYPRO Orange was diluted to 10× concentration in water. Wells were set up in duplicate in a 384-well PCR plate as follows: 14 μL assay buffer, 2 μL ENPP1 Inhibitor or DMSO, 2 μL (0.5 μg) ENPP1 protein. Each well was mixed and incubated on ice for 5 minutes. Post incubation, 2 μL of SYPRO Orange was mixed into each well and followed by a gentle centrifugation. The protein melt reaction was run using ViiA7 software with temperatures beginning at 25° C. and increasing by 0.05° C./s to the maximum temperature of 99° C.
In a 384-well plate, 1.0 μg of ENPP1 protein incubated with 100 μM of the corresponding drug for 5 minutes. Each well exposed to increasing temperatures to determine an unfolding temperature of the protein.
Target sequence in this assay (P22413 whole entry, looked up, change not shown): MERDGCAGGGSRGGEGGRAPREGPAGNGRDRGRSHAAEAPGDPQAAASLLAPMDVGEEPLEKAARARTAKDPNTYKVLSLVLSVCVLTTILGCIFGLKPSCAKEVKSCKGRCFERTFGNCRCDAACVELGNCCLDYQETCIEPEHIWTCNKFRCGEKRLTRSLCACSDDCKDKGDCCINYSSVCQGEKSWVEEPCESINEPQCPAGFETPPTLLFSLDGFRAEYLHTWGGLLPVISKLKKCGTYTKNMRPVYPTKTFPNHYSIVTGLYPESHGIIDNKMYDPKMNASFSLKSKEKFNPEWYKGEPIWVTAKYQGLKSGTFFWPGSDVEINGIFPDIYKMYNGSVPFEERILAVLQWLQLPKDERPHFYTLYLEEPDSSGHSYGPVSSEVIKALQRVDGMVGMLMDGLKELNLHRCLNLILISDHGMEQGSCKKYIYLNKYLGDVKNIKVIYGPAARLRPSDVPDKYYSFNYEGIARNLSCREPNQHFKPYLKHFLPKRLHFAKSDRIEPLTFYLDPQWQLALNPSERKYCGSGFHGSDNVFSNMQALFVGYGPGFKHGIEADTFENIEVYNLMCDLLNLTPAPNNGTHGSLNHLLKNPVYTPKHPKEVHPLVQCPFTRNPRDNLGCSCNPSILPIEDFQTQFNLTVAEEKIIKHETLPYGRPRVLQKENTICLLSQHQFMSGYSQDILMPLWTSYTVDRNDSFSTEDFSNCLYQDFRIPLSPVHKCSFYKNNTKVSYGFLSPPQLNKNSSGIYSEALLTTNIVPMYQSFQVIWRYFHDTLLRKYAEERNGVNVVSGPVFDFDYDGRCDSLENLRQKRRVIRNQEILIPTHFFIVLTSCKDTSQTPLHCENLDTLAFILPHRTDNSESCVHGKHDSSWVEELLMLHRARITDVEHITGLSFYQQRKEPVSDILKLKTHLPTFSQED

In data set [3] the target is T1, Recombinant Human ENPP-1 Protein (purified in-house). Kind of data set: ENPP1 Assay (TMP), Example 2. The following applies: Table 5, TMP substrate; read-out: ENPP1 (IC50 μM) TMP. It is filed as biochemical. Here is the method:
Enzyme: 1 ng/μL Recombinant Human ENPP-1 Protein (purified in-house)—Assay Conc.: 5 ng/well of DMSO in 96-well clear assay plates.
A ten point serial dilution of drugs was prepared in 10× in assay buffer with the final assay concentrations starting at 10 μM, 3 μM, 1 μM, 0.3 μM . . . 0 μM. A dilution of DMSO was included as a control. The assay plate was set up as follows with each well in duplicate: 75 μL assay buffer+10 μL ENPP1 inhibitor or DMSO Dilutions+10 μL Substrate+5 μL Enzyme (5 ng). Both the enzyme and substrate were added to opposite sides of the well to ensure that there was no interaction until all wells had both components. The plate was then centrifuged gently for 10 seconds, followed by an incubation at 37° C. for 45 minutes. The reaction was quantified by measuring absorbance at 405 nm using the Envision Plate Reader.

Another data set has as its system ENPP. As to the kind of experiment: Selectivity.
For the next data set, the system named is Caco-2. Kind of data set: Caco-2 permeability. The data set is classed as in vitro ADME.
The target of a further data set is PgP (Homo sapiens (Human), UniProt P08183). As to the kind of experiment: PgP Inhibition. It is filed as in vitro ADME.
Sequence of PgP (P08183 whole entry): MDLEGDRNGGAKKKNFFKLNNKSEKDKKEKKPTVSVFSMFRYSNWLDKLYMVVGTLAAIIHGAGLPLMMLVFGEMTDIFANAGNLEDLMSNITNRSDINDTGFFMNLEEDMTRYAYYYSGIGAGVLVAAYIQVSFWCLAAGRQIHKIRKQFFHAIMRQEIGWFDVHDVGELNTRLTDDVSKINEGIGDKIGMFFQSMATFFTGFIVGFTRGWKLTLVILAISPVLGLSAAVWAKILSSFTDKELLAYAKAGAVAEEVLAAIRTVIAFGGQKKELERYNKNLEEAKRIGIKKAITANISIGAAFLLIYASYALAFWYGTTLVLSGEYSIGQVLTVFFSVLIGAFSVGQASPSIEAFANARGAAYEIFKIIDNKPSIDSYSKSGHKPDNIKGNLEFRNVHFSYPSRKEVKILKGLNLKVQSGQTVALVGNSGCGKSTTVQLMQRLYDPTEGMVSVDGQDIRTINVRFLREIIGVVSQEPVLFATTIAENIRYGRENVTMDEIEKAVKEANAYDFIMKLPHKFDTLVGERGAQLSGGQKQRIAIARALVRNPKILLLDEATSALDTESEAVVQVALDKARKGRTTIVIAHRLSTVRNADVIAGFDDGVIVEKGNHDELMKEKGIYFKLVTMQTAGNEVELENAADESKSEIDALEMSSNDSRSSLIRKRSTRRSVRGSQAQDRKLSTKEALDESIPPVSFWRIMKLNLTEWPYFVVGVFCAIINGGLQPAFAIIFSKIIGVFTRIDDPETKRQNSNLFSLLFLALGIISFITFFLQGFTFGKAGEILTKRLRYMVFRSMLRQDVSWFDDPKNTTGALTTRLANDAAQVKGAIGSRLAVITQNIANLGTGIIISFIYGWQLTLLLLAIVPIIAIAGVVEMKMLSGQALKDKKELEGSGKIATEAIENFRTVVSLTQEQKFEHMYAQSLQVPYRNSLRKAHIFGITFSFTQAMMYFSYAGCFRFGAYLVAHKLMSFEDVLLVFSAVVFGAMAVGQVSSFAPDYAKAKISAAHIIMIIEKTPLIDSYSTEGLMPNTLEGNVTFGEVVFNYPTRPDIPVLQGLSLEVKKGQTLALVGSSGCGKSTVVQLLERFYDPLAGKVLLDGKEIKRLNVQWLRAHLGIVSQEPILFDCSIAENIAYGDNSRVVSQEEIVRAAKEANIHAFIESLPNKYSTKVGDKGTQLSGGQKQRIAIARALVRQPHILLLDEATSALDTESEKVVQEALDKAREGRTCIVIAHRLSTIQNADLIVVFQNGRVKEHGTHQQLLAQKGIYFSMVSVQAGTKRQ
In data set [4] the target is T2, ENPP1 protein. Kind of data set: ENPP1 enzymatic assay with TMP substrate (FIG. 8). The note with it: 5.0 ng ENPP1, 150 μM TMP substrate. It is filed as biochemical. On the procedure: FIG. 8 depicts results of a similar experiment. 5.0 ng of ENPP1 protein exposed to increasing doses of inhibitor (compound 78 or compound 107-02) for 10 minutes in solution, followed by the addition of 150 μM of TMP substrate. The assay was then incubated for 20 minutes and then read at 405 nm on the envision plate reader.
Target sequence in this assay (P22413 whole entry, looked up): as the sequence (P22413 whole entry, looked up, change not shown) above

The subject of data set [5] is IRF-3 reporter in THP1 WT and STING knockout cells. As to the kind of experiment: THP1 IRF-3 Reporter Assay. The data set is classed as cell-based. The following applies: 10 μM, primed with 2′3′cGAMP, 24 hours (FIG. 10) or 72 hours (FIG. 11). Here is the method: FIGS. 10 and 11 depict results of a THP1 IRF-3 Reporter Assay. THP1 WT and STING knockout cells were primed with 2′3′cGAMP and treated with 10 μM ENPP1 inhibitors for 24 hours (FIG. 10) or 72 hours (FIG. 11). Media collected to determine induction of IRF-3 reporter using luminescence reagent QuantiLuc.

The nature of the next data set: Mouse PK Profile. The data set is classed as in vivo.
Data set [6] in a line: Physicochemical profile of 107-02 (PSA, Log P, Log S, solubility).

Structures are written as SMILES.

T1 sequence (P22413 whole entry, looked up): as the sequence (P22413 whole entry, looked up, change not shown) above

Usually IC50 stands for the concentration needed to halve the response being measured. The ΔTm is the shift of the melting midpoint relative to a reference. By AUC(0-t) is commonly meant exposure summed from dosing to a finite time, without extrapolation to infinity. In general, half-life refers to the time needed for the level to fall by half in the phase considered. Lower therefore signals fast loss. A word on the solubility: it is the dissolved amount per volume that the medium holds. A higher solubility goes with a readily soluble substance. Usually logP stands for the decadic logarithm of the partition coefficient of the neutral form, usually between octanol and water. High values mean higher lipophilicity, low ones lower lipophilicity. With `COc1ccc(NC(=O)CSc2nc3c(C)c(C#N)ncc3[nH]2)cc1OP(=O)(O)O` [Compound 107-02, 5-(2-((6-Cyano-7-methyl-3H-imidazo[4,5-c]pyridin-2-yl)thio)acetamido)-2-methoxyphenyl dihydrogen phosphate], the total mineralization result with Saos-2 Cells is on record as “significant decrease”. Also, the “tumor growth of KPC mouse model of PDAC” value in the data set on KPC mouse model of PDAC is listed as “inhibits tumor growth”. The IC50 in data set [1] turned out to be 0.211 µM. Besides, at ENPP1 protein [2] (Table 2, FIG. 7, 100 μM drug, 1.0 μg ENPP1, NT 60.05), the “Tm (° C.)” value is 63.89 °C. Moreover, the ΔTm at 100 µM at ENPP1 protein [2] (read-out: ΔTm (° C.)) is 3.84 °C. The IC50 in [3] stood at 0.742 µM. Moreover, in the data set with ENPP, the Selectivity entry was “Highly selective ENPPi”. The molecule also had a Caco2 in the data set with Caco-2 (first entry (Caco2)) of −5.28. The molecule also registered a Caco-2 in the data set with Caco-2 (second entry (Caco-2)) of −4.867. For the same molecule, the “PgP Inhibition” value on PgP is “Negative”. Further, the enzymatic activity entry on ENPP1 protein [4] is on record as “significant decrease”. Besides, the IRF-3 response entry in [5] is given as “significant increase”. The “Mouse PK Profile CO” value in the data set “Mouse PK Profile” was determined as 2840.69 ng/mL. In the data set “Mouse PK Profile” (plasma), this molecule had an AUC(0-t) of 1640 ng·h/mL and a half-life of 1.83 h. Moreover, the AUC(0-inf) in “Mouse PK Profile” (plasma, read-out: AUCINF obs) worked out at 1650 ng·h/mL. Besides, the clearance in the data set “Mouse PK Profile” (plasma, read-out: CL obs) is 22.1 mL/min/kg. This molecule yielded a solubility in data set [6] of 640 µg/mL. This molecule gave a logP in data set [6] (pH 7.4) of 0.009.
